The target of one test is T1, human FLT4 (Homo sapiens, UniProt P35916).
T1 construct: a construct expressing the human FLT4 (789-1207) with an amino terminal GST tag; host or cells: Sf9 insect cells (baculovirus)
The experiment in a line: FLT4 kinase assay (DELFIA enzyme inhibition). It is filed as biochemical. Conditions: read-out: FLT4 IC50. The protocol: A GST-kinase fusion protein of 70 KDa was produced using sf9 baculovirus expression system, with a construct expressing the human FLT4 (789-1207) with an amino terminal GST tag. The protein was purified by affinity chromatography using glutathione-agarose followed by separation on a gel filtration column.
FLT4 enzyme activity is determined using a Dissociation Enhanced Lanthanide Fluorescent Immunoassay (DELFIA) with a peptide substrate derived from the MET (Tyr 1253) peptide […] with a core sequence […].
The amount of phosphorylated peptide produced is detected by means of a phospho-Tyrosine specific Europium-labelled antibody using Time-Resolved Fluorescence at Excitation 360-35 nm and Emission 620-35 nm.
Assay reactions are set up in a 25 uL final volume on a 96 well plate. […] The reaction is allowed to proceed for 30 minutes at room temperature before stopping with 100 uL Stop solution comprising of 100 mM EDTA, 1×BSA blocker in TBS (Perbio) and 0.05% Surfact-Amps20 (Perbio).
The stopped reaction is transferred to a black 96-well Neutravidin-coated plate (Perbio) and incubated for 30 minutes to capture the biotinylated peptide substrate. After washing wells 3 times with 200 uL TBS/T buffer, Anti-Phospho-Tyr-100 antibody labelled with Eu—N1 (Perkin Elmer AD0159) is added to all wells for 60 minutes at room temperature. After a repeat washing step, DELFIA Enhancement solution (Perkin Elmer) is added to all wells for 5 minutes and the fluorescence measured on a plate reader Analyst HT (Molecular Devices).
The % inhibition of the activity is calculated and plotted in order to determine the concentration of test compound required to inhibit 50% of the enzyme activity (IC50).

The next test addresses T2, human Aurora A (Homo sapiens, UniProt O14965).
T2 construct: Histidine tag (N); host or cells: Sf9 insect cells (baculovirus)
T2 sequence (O14965 1-403): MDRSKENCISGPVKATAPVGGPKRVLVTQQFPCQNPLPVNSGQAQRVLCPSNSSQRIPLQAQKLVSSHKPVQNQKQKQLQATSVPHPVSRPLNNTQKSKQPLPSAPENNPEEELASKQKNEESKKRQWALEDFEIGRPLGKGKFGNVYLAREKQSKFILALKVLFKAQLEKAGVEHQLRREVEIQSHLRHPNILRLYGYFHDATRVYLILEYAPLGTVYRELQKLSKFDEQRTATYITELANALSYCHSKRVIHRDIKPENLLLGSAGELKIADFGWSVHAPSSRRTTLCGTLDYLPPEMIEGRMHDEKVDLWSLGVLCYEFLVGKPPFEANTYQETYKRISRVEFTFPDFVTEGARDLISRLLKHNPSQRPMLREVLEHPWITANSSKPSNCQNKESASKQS
The experiment in a line: Aurora A kinase assay (DELFIA enzyme inhibition). It is filed as biochemical. Conditions: read-out: Aurora A IC50. Here is the method:
The protein was purified by one-step affinity chromatography using nickel-agarose […]
Assay reactions are set up in a 25 uL final volume on a 96 well plate. […] The reaction is allowed to proceed for 30 minutes at room temperature before stopping with 100 μL Stop solution comprising of 100 mM EDTA, 1×BSA blocker in TBS (Perbio) and 0.05% Surfact-Amps20 (Perbio).
The stopped reaction is transferred to a black 96-well Neutravidin-coated plate (Perbio) and incubated for 30 minutes to capture the biotinylated peptide substrate. […] After repeating the washing step, the plate is further incubated for one hour with Europium-labelled anti-rabbit antibody (Perkin Elmer AD0105). The wash step is repeated for a final time before DELFIA Enhancement solution (Perkin Elmer) is added to all wells for 5 minutes and the fluorescence measured on a plate reader Analyst HT (Molecular Devices).

Bounds are passed on as bounds.

T1 sequence (P35916 789-1207): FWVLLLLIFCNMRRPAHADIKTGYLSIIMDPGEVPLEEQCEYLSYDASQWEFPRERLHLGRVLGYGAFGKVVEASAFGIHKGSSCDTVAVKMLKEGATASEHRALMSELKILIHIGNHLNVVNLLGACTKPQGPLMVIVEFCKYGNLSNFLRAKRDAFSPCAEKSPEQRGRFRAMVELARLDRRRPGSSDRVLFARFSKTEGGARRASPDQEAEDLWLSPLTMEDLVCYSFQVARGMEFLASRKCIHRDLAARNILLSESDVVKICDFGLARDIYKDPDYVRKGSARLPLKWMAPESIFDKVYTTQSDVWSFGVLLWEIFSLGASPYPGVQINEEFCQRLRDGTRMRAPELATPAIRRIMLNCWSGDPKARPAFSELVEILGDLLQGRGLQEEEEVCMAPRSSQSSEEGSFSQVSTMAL

The IC50 is the concentration that gives 50% inhibition. As to `NC(=O)c1nc(-c2ccnc3[nH]ccc23)oc1-c1ccc(N2CCNCC2)cc1` [Example M-18, 5-(4-(piperazin-1-yl)phenyl)-2-(1H-pyrrolo[2,3-b]pyridin-4-yl)oxazole-4-carboxamide], the IC50 on human FLT4 and at human Aurora A was below 10 µM throughout.

Consider `NC(=O)c1nc(Nc2ccnn2Cc2ccccc2)oc1-c1ccc(N2CCNCC2)cc1` [Example R-18, 2-(1-benzyl-1H-pyrazol-5-ylamino)-5-(4-(piperazin-1-yl)phenyl)oxazole-4-carboxamide], for which the IC50 at human FLT4 and on human Aurora A was below 10 µM in each case.

Take `NC(=O)c1nc(-c2c(F)cccc2F)oc1Nc1ccc(C(=O)N[C@@H]2CCNC2)cc1` [Example U-6, (R)-2-(2,6-difluorophenyl)-5-(4-(pyrrolidin-3-ylcarbamoyl)phenylamino)oxazole-4-carboxamide]: the IC50 on human FLT4 and on human Aurora A was below 10 µM each time.

Regarding `CN(C)c1ccc(-c2oc(-c3c(F)cccc3F)nc2C(N)=O)cc1` [Example F-3, 2-(2,6-difluorophenyl)-5-(4-(dimethylamino)phenyl)oxazole-4-carboxamide], the IC50 on human FLT4 is below 10 µM; at human Aurora A, below 100 µM.

`COc1ccc(-c2oc(-c3ccc(C(F)(F)F)cc3F)nc2C(N)=O)cc1` [Example N-5, 2-(2-fluoro-4-(trifluoromethyl)phenyl)-5-(4-methoxyphenyl)oxazole-4-carboxamide]: the IC50 on human Aurora A is below 100 µM.

On to `NC(=O)c1nc(-c2c(F)cccc2F)oc1Nc1ccc(C2CCNCC2)cc1` [Example Q-46, 2-(2,6-difluorophenyl)-5-(4-(piperidin-4-yl)phenylamino)oxazole-4-carboxamide], for which the IC50 at human FLT4 and on human Aurora A was below 10 µM in each case.

On to `CS(=O)(=O)c1ccc(F)c(Nc2oc(-c3c(F)cccc3F)nc2C(N)=O)c1` [Example Q-44, 2-(2,6-difluorophenyl)-5-(2-fluoro-5-(methylsulfonyl)phenylamino)oxazole-4-carboxamide], for which the IC50 at human FLT4 was below 10 µM; on human Aurora A, below 100 µM.

With `NC(=O)c1[nH]c(-c2c(F)cccc2F)nc1-c1ccccc1F` [Example A-18, 2-(2,6-difluorophenyl)-4-(2-fluorophenyl)-1H-imidazole-5-carboxamide], the half-maximal inhibitory concentration (IC50) at human Aurora A is below 10 µM.

As for `NC(=O)c1nc(-c2c(F)cccc2F)oc1-c1cccc2[nH]ccc12` [Example F-36, 2-(2,6-difluorophenyl)-5-(1H-indol-4-yl)oxazole-4-carboxamide], the IC50 on human Aurora A was below 100 µM.

In the case of `NC(=O)c1nc(-c2c(F)cccc2F)oc1-c1cccc2cccnc12` [Example F-37, 2-(2,6-difluorophenyl)-5-(quinolin-8-yl)oxazole-4-carboxamide], the IC50 at human Aurora A was below 100 µM.

Regarding `COc1ccc(-c2oc(-c3cc(C(F)(F)F)ccc3F)nc2C(N)=O)cc1` [Example N-6, 2-(2-fluoro-5-(trifluoromethyl)phenyl)-5-(4-methoxyphenyl)oxazole-4-carboxamide], the IC50 on human Aurora A was below 100 µM.

In the case of `COc1ccc(-c2oc(Nc3c(F)cccc3F)nc2C(N)=O)cc1` [Example R-9, 2-(2,6-difluorophenylamino)-5-(4-methoxyphenyl)oxazole-4-carboxamide], at human Aurora A, the IC50 is below 10 µM.

Take `NC(=O)c1nc(-c2c(F)cccc2F)oc1-c1cccc2ccccc12` [Example F-35, 2-(2,6-difluorophenyl)-5-(naphthalen-1-yl)oxazole-4-carboxamide]: at human Aurora A, the IC50 is below 100 µM.

For `COc1ccc(-c2oc(-c3ccc(C)cc3)nc2C(N)=O)cc1` [Example N-9, 5-(4-methoxyphenyl)-2-p-tolyloxazole-4-carboxamide], the IC50 on human Aurora A is below 100 µM.

For `COc1ccc(-c2oc(-c3ccc(C(F)(F)F)cc3)nc2C(N)=O)cc1` [Example N-4, 5-(4-methoxyphenyl)-2-(4-(trifluoromethyl)phenyl)oxazole-4-carboxamide], the IC50 at human Aurora A was below 100 µM.

Regarding `COc1ccc(-c2oc(-c3ccccc3C(N)=O)nc2C(N)=O)cc1` [Example M-6, 2-(2-carbamoylphenyl)-5-(4-methoxyphenyl)oxazole-4-carboxamide], on human Aurora A, the concentration for half-maximal inhibition (IC50) was below 100 µM.

These data come from patent US9187465B2, “Oxazole tyrosine kinase inhibitors” (Sareum Limited, priority 2007, dated 2015).
